Data: patent US9585382B2, “Composition comprising a pesticide and an acetal solvent” (priority 2011, dated 2017)
Values after ≈ are worked out from the molar mass of the structure shown.

Experiments:
physchem = conditions: for solubility: 20 °C, organic solvent or mixture
Description: A) Pyraclostrobin was added at 20° C. to benzaldehyde dimethyl acetal or p-anisaldehyde dimethyl acetal, with stirring.

[1] = Flash point (DIN 53213-1); type: physicochemical; conditions: measured as specified in DIN 53213-1
[2] = EU directive 67/548/EEC, 1999/45/EC or 88/379/EEC; cited from earlier work
Viscosity = type: physicochemical; conditions: 20° C.
[3] = Description: The solubility of benzaldehyde dimethyl acetal or p-anisaldehyde dimethyl acetal in water at 20° C. was analyzed.

## C#CCN1C(=O)C(F)(F)Oc2cc(F)c(-n3c(=O)n(C)c(=S)n(C)c3=O)cc21 [1,5-dimethyl-6-thioxo-3-(2,2,7-trifluoro-3-oxo-4-(prop-2-ynyl)-3,4-dihydro-2H-benzo[b][1,4]oxazin-6-yl)-1,3,5-triazinan-2,4-dione]
physchem; maximum solubility in Solvesso 150 ND
  solubility: 19 mg/mL (≈ 46.1 mM)
physchem; maximum solubility in Solvesso 200 ND
  solubility: 63 mg/mL (≈ 153 mM)
physchem; maximum solubility in p-anisaldehyde dimethyl acetal
  solubility: 214 mg/mL (≈ 519 mM)

## COC(=O)N(OC)c1ccccc1COc1ccn(-c2ccc(Cl)cc2)n1 [Pyraclostrobin, reference compound]
physchem; 20° C., with stirring, solvent benzaldehyde dimethyl acetal (not inventive)
  solubility in benzaldehyde dimethyl acetal: at least 50 % by weight
physchem; 20° C., with stirring, solvent p-anisaldehyde dimethyl acetal
  solubility in p-anisaldehyde dimethyl acetal: at least 50 % by weight

## COC(OC)c1ccccc1 [Benzaldehyde dimethyl acetal, reference compound]
[1]
  flash point: 69 °C
[2]
  EU R phrase: R22—harmful if swallowed
  EU hazard classification: Xn—harmful

## COc1ccc(C(OC)OC)cc1 [p-Anisaldehyde dimethyl acetal]
Viscosity
  viscosity: 5.5 mPas
[1]
  flash point: 114 °C
[2]
  EU R phrase: without R phrase
  EU hazard classification: without classification
[3]
  solubility in water: ≤ 0.1 % by weight
